Assay results published in US12180187B2, “1-phenyl-5-azinylpyrazolyl-3-oxyalkyl acids and their use for controlling unwanted plant growth” (BAYER AKTIENGESELLSCHAFT, priority 2019, dated 2024).

Tests used:
ECHCG [1] = test: Post-emergence action against ECHCG, 1.28 kg/ha; format: in vivo, Echinochloa crus-galli; conditions: dosage 1280 g/ha, visual rating about 3 weeks after treatment vs untreated controls
In short: (§1)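 Greenhouse pot test, sandy loam; weeds sprayed post-emergence at one-leaf stage (2–3 weeks after sowing) with WP or EC formulation plus 0.5% additive, 600 l/ha water. Visual rating after about 3 weeks versus untreated controls, 100% = plants dead, 0% = like control.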

POAAN [2] = test: Post-emergence action against POAAN, 1.28 kg/ha; format: in vivo, Poa annua; conditions: dosage 1280 g/ha, visual rating about 3 weeks after treatment vs untreated controls
In short: as §1

MATIN [3] = test: Pre-emergence action against MATIN, 1280 g/ha; format: in vivo, Tripleurospermum inodorum (Matricaria inodora); conditions: scored visually after about 3 weeks vs untreated controls (100% = plants have died)
In short: (§2)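 Compound applied as WP or EC in aqueous spray (0.5% additive, 600 L/ha) to the surface of sandy loam covering freshly sown seeds. After about 3 weeks under good greenhouse conditions, damage is given as visual percentage, 100% meaning plant death.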

STEME [4] = test: Pre-emergence action against STEME, 1280 g/ha; format: in vivo, Stellaria media; conditions: scored visually after about 3 weeks vs untreated controls (100% = plants have died)
In short: as §2

ALOMY [5] = test: Pre-emergence action against ALOMY, 1280 g/ha; format: in vivo, Alopecurus myosuroides; conditions: visual scoring after about 3 weeks vs untreated controls, 100% = plants have died, 0% = like control plants
In short: as §2

LOLRI [6] = test: Pre-emergence action against LOLRI, 1280 g/ha; format: in vivo, Lolium rigidum; conditions: visual scoring after about 3 weeks vs untreated controls, 100% = plants have died, 0% = like control plants
In short: as §2

DIGSA [7] = test: Post-emergence action against DIGSA, 1.28 kg/ha; format: in vivo, Digitaria sanguinalis; conditions: dosage 1280 g/ha, visual rating about 3 weeks after treatment vs untreated controls
In short: as §1

VERPE [8] = test: Pre-emergence action against VERPE, 1280 g/ha; format: in vivo, Veronica persica; conditions: scored visually after about 3 weeks vs untreated controls (100% = plants have died)
In short: as §2

DIGSA [9] = test: Pre-emergence action against DIGSA, 1280 g/ha; format: in vivo, Digitaria sanguinalis; conditions: visual scoring after about 3 weeks vs untreated controls, 100% = plants have died, 0% = like control plants
In short: as §2

AMARE [10] = test: Post-emergence action against AMARE, 1.28 kg/ha; format: in vivo, Amaranthus retroflexus; conditions: dosage 1280 g/ha, visual rating about 3 weeks after treatment vs untreated controls (100% = plants died)
In short: as §1

POAAN [11] = test: Pre-emergence action against POAAN, 1280 g/ha; format: in vivo, Poa annua; conditions: visual scoring after about 3 weeks vs untreated controls, 100% = plants have died, 0% = like control plants
In short: as §2

AMARE [12] = test: Pre-emergence action against AMARE, 1280 g/ha; format: in vivo, Amaranthus retroflexus; conditions: scored visually after about 3 weeks vs untreated controls (100% = plants have died)
In short: as §2

LOLRI [13] = test: Post-emergence action against LOLRI, 1.28 kg/ha; format: in vivo, Lolium rigidum; conditions: dosage 1280 g/ha, visual rating about 3 weeks after treatment vs untreated controls
Experimental: (§3) • a) Seeds of mono- and dicotyledonous weed plants are placed in plastic pots in sandy loam soil (twin sowing with one species each of mono- or dicotyledonous weed plants per pot), covered with soil and cultivated in a greenhouse under controlled growth conditions. 2 to 3 weeks after sowing, the test plants are treated at the one-leaf stage. The compounds of the invention, formulated in the form of wettable powders (WP) or as emulsion concentrates (EC), are applied to the green parts of the plants as aqueous suspension or emulsion with addition of 0.5% additive at a water application rate equivalent to 600 litres per hectare. After the test plants have been kept in the greenhouse under optimum growth conditions for about 3 weeks, the activity of the preparations is rated visually in comparison to untreated controls. For example, 100% activity=the plants have died, 0% activity=like control plants. As shown by the results, compounds of the general formula (I) of the invention, in post-emergence treatment, have very good herbicidal efficacy (90% to 100% herbicidal action) against harmful plants such as Abutilon theophrasti, Digitaria sanguinalis, Echinochloa crus-galli, Matricaria inodora, Poa annua, at an application rate of 1.28 kg of active substance per hectare.

SETVI [14] = test: Pre-emergence action against SETVI, 1280 g/ha; format: in vivo, Setaria viridis; conditions: visual scoring after about 3 weeks vs untreated controls, 100% = plants have died, 0% = like control plants
In short: as §2

ECHCG [15] = test: Pre-emergence action against ECHCG, 1280 g/ha; format: in vivo, Echinochloa crus-galli; conditions: visual scoring after about 3 weeks vs untreated controls, 100% = plants have died, 0% = like control plants
In short: as §2

MATIN [16] = test: Post-emergence action against MATIN, 1.28 kg/ha; format: in vivo, Tripleurospermum inodorum (Matricaria inodora); conditions: dosage 1280 g/ha, visual rating about 3 weeks after treatment vs untreated controls (100% = plants died)
In short: as §1

VERPE [17] = test: Post-emergence action against VERPE, 1.28 kg/ha; format: in vivo, Veronica persica; conditions: dosage 1280 g/ha, visual rating about 3 weeks after treatment vs untreated controls (100% = plants died)
In short: as §1

ALOMY [18] = test: Post-emergence action against ALOMY, 1.28 kg/ha; format: in vivo, Alopecurus myosuroides; conditions: dosage 1280 g/ha, visual rating about 3 weeks after treatment vs untreated controls
In short: as §1

SETVI [19] = test: Post-emergence action against SETVI, 1.28 kg/ha; format: in vivo, Setaria viridis; conditions: dosage 1280 g/ha, visual rating about 3 weeks after treatment vs untreated controls
Experimental: as §3

STEME [20] = test: Post-emergence action against STEME, 1.28 kg/ha; format: in vivo, Stellaria media; conditions: dosage 1280 g/ha, visual rating about 3 weeks after treatment vs untreated controls (100% = plants died)
Experimental: as §3

ABUTH = test: Post-emergence action against ABUTH, 1.28 kg/ha; format: in vivo, Abutilon theophrasti; conditions: dosage 1280 g/ha, visual rating about 3 weeks after treatment vs untreated controls (100% = plants died)
In short: as §1

In the case of `Cc1ccc(-n2nc(OCC(=O)O)c(Br)c2-c2ccc(F)nc2)cc1` [VII-067], the “Post-emergence action against ECHCG” value (ECHCG [1]) is reported as 100%, the “Post-emergence action against POAAN” value (POAAN [2]) is reported as 100% and the “Pre-emergence action against MATIN” value (MATIN [3]) is reported as 100%. The “Pre-emergence action against STEME” value (STEME [4]) was 100%, the “Pre-emergence action against ALOMY” value (ALOMY [5]) was 100% and the “Pre-emergence action against LOLRI” value (LOLRI [6]) was 100%. The “Post-emergence action against DIGSA” value (DIGSA [7]) was 100%, the “Pre-emergence action against VERPE” value (VERPE [8]) was 100% and the “Pre-emergence action against DIGSA” value (DIGSA [9]) was 100%. The “Post-emergence action against AMARE” value (AMARE [10]) was 100%, the “Pre-emergence action against POAAN” value (POAAN [11]) was 100% and the “Pre-emergence action against AMARE” value (AMARE [12]) was 100%. The “Post-emergence action against LOLRI” value (LOLRI [13]) was 100%, the “Pre-emergence action against SETVI” value (SETVI [14]) was 100% and the “Pre-emergence action against ECHCG” value (ECHCG [15]) was 100%. For the same compound, the “Post-emergence action against MATIN” value (MATIN [16]) was 90%.
For `O=C(COc1nn(-c2ccccc2F)c(-c2ccc(F)nc2)c1Br)OCC1CCCO1` (centres unmarked) [VII-090], the “Post-emergence action against ECHCG” value (ECHCG [1]) was 100%, the “Post-emergence action against POAAN” value (POAAN [2]) was 100% and the “Pre-emergence action against MATIN” value (MATIN [3]) was 100%. For the same compound, the “Pre-emergence action against STEME” value (STEME [4]) was 100%, the “Pre-emergence action against ALOMY” value (ALOMY [5]) was 100% and the “Pre-emergence action against LOLRI” value (LOLRI [6]) was 100%. For the same compound, the “Post-emergence action against DIGSA” value (DIGSA [7]) was 100%, the “Pre-emergence action against VERPE” value (VERPE [8]) was 100% and the “Pre-emergence action against DIGSA” value (DIGSA [9]) was 100%. For the same compound, the “Post-emergence action against VERPE” value (VERPE [17]) was 100%, the “Pre-emergence action against POAAN” value (POAAN [11]) was 100% and the “Pre-emergence action against AMARE” value (AMARE [12]) was 100%. The “Post-emergence action against LOLRI” value (LOLRI [13]) was 90%, the “Pre-emergence action against SETVI” value (SETVI [14]) was 100% and the “Pre-emergence action against ECHCG” value (ECHCG [15]) was 100%. The “Post-emergence action against MATIN” value (MATIN [16]) was 90%.
`Cc1ccccc1-n1nc(OCC(=O)O)c(I)c1-c1ccc(F)nc1` [VII-097] was tested, and the “Post-emergence action against ECHCG” value (ECHCG [1]) was 100%, the “Post-emergence action against POAAN” value (POAAN [2]) was 100% and the “Pre-emergence action against MATIN” value (MATIN [3]) was 90%. The “Pre-emergence action against STEME” value (STEME [4]) was 100%, the “Post-emergence action against ALOMY” value (ALOMY [18]) was 100% and the “Pre-emergence action against LOLRI” value (LOLRI [6]) was 100%. For the same compound, the “Post-emergence action against DIGSA” value (DIGSA [7]) was 100%, the “Post-emergence action against SETVI” value (SETVI [19]) was 90% and the “Post-emergence action against STEME” value (STEME [20]) was 90%. For the same compound, the “Pre-emergence action against VERPE” value (VERPE [8]) was 100%, the “Pre-emergence action against DIGSA” value (DIGSA [9]) was 100% and the “Post-emergence action against VERPE” value (VERPE [17]) was 100%. For the same compound, the “Pre-emergence action against POAAN” value (POAAN [11]) was 100%, the “Pre-emergence action against AMARE” value (AMARE [12]) was 100% and the “Post-emergence action against LOLRI” value (LOLRI [13]) was 90%. For the same compound, the “Pre-emergence action against SETVI” value (SETVI [14]) was 100%, the “Pre-emergence action against ECHCG” value (ECHCG [15]) was 100% and the “Post-emergence action against MATIN” value (MATIN [16]) was 90%.
In the case of `COC(=O)C(C)Oc1nn(-c2ccccc2)c(-c2ccnc(F)c2)c1Cl` (centres unmarked) [VIII-007], the “Post-emergence action against ECHCG” value (ECHCG [1]) is reported as 90%, the “Post-emergence action against POAAN” value (POAAN [2]) is reported as 100% and the “Pre-emergence action against MATIN” value (MATIN [3]) is reported as 90%. For the same compound, the “Pre-emergence action against STEME” value (STEME [4]) was 90%, the “Pre-emergence action against LOLRI” value (LOLRI [6]) was 100% and the “Post-emergence action against DIGSA” value (DIGSA [7]) was 90%. For the same compound, the “Post-emergence action against STEME” value (STEME [20]) was 100%, the “Pre-emergence action against VERPE” value (VERPE [8]) was 100% and the “Pre-emergence action against DIGSA” value (DIGSA [9]) was 90%. The “Post-emergence action against VERPE” value (VERPE [17]) was 100%, the “Post-emergence action against AMARE” value (AMARE [10]) was 100% and the “Post-emergence action against ABUTH” value (ABUTH) was 90%. The “Pre-emergence action against POAAN” value (POAAN [11]) was 100%, the “Pre-emergence action against AMARE” value (AMARE [12]) was 100% and the “Post-emergence action against LOLRI” value (LOLRI [13]) was 100%. The “Pre-emergence action against SETVI” value (SETVI [14]) was 100%, the “Pre-emergence action against ECHCG” value (ECHCG [15]) was 100% and the “Post-emergence action against MATIN” value (MATIN [16]) was 90%.
